Experimental data from ChEMBL document CHEMBL3045923, “Using a selectivity index to evaluate logarithmic spraying in grass seed crops” (Pest Manag Sci, 2009).

Columns and labels:
Festuca rubra [1] = experiment: Toxicity against Festuca rubra applied using logarithmic sprayer; type: organism-based; details: in vivo
[2] = test system: Poa pratensis subsp. pratensis; experiment: Herbicidal activity against Poa pratensis subsp. pratensis applied using logarithmic sprayer; type: functional
[3] = Selectivity index, ratio of ED10 for Festuca rubra L. to ED90 for Poa pratensis subsp. Pratensis
[4] = Ratio of ED50 for Festuca pratensis to ED50 for Poa pratensis subsp. Pratensis
[5] = Ratio of ED50 for Festuca rubra L. to ED50 for Poa pratensis subsp. Pratensis
[6] = Ratio of ED50 for Festuca arundinacea to ED50 for Poa pratensis subsp. Pratensis
Festuca rubra [7] = experiment: Toxicity against Festuca rubra applied applied during spring season using logarithmic sprayer; type: organism-based; details: in vivo
[8] = test system: Poa pratensis subsp. pratensis; experiment: Herbicidal activity against Poa pratensis subsp. pratensis applied during spring season using logarithmic sprayer; type: functional
[9] = Ratio of ED50 for Lolium perenne to ED50 for Poa pratensis subsp. Pratensis

Structure (SMILES)	ED50 (Festuca rubra [1])	ED50 [2]	further results
C#CCOC(=O)[C@@H](C)Oc1ccc(Oc2ncc(Cl)cc2F)cc1 [CLODINAFOP PROPARGYL]	0.923 kg/ha	0.192 kg/ha	Selectivity Index [3]: > 1
CCOC(=O)[C@@H](C)Oc1ccc(Oc2nc3ccc(Cl)cc3o2)cc1 [FENOXAPROP-P-ETHYL]	1.137 kg/ha	0.408 kg/ha	ED90 [2]: 0.68 kg/ha; Ratio ED50 [4]: > 2; Ratio ED50 [5]: > 2; Ratio ED50 [6]: > 2
COc1cc(OC)nc(NC(=O)NS(=O)(=O)c2nc(C(F)(F)F)ccc2C(=O)O)n1 [FLUPYRSULFURON]	0.024 kg/ha	0.017 kg/ha	Ratio ED50 [5]: > 2; ED50 (Festuca rubra [7]): 0.04 kg/ha; ED50 [8]: 0.019 kg/ha
O=C(O)CNCP(=O)(O)O [GLYPHOSATE]	0.263 L/ha	–	–
COc1nc(C)nc(NC(=O)NS(=O)(=O)c2cc(I)ccc2C(=O)O)n1 [IODOSULFURON]	0.367 kg/ha	0.184 kg/ha	–
CCC(CC)Nc1c([N+](=O)[O-])cc(C)c(C)c1[N+](=O)[O-] [PENDIMETHALIN]	3.531 L/ha	1.761 L/ha	–
CCCN(CCC)C(=O)SCc1ccccc1 [PROSULFOCARB]	–	2.337 kg/ha	–
CCS(=O)(=O)c1nc2ccccn2c1S(=O)(=O)NC(=O)Nc1nc(OC)cc(OC)n1 [SULFOSULFURON]	0.007 kg/ha	0.014 kg/ha	Ratio ED50 [9]: > 1
